For one assay, the system named is lympha cells. The assay is described as follows: Mitogenic activity in vitro (Blastogenic index). It counts as cell-based, C3H/He male mice. The settings on record: Mus musculus, Lymphocyte; terminal concentration 1 μg/ml; ratio of 3H-tymidine uptake vs blank control; read-out: Blastgenic Index. As to the method:
(1) Mitogenic activity in vitro
Mitogenic activity means activity of activating mitogenic cell division, and in this test system, the amount of tymidine taken into lympha cells was measured and a ratio determined against a blank control call (Blastogenic index) was calculated.
For example, adding the compound prepared in example 1(c) to the test system induced 30 times the amount of tymidine taken into the lympha cells versus the control.
The amounts were measured by density of a radiolabel.
Mytogenic activity in vitro was measured by the following method (See Procedure Method of Immunoexperiment pp 315 published by Japan Immunology Society).
C3H/He male mice 6 weeks old were killed by bloodletting, and their spleens were isolated and homogenized. Homogenizing liquids were filtered with gauze, and suspending cells were prepared with PBS solution. After washing, lymphacytes fractions were gathered with lympholight M. Lymphacytes were suspended in RPMI 1640 cultivation solution (10% FEBS), and the solution was divided into 5×10^5 cells/180 μl/wells. Ten times concentration of the terminal concentration (1 μg/ml) of the compounds of the present invention were added with 20 μl portions to each of the wells.
After cultivation, ^3 H-tymidine 0.5 μCi/20 μl was added to the each cells. Cultivation was continued at 37° C. for another 24 hrs, and amounts of ^3 H-tymidine taken into the cells were measured. Mitogenic activities were calculated as by Blastogenic index in as follows. [formula]

For the next assay, the system named is RLδ1 tumor. In words: Anti-tumor effect on Balb/C mice inoculated with RLδ1 tumor. It counts as in vivo, female Balb/C mice. The settings on record: for Survival period: Day 10, day ± standard error; for effect on tumor regression: 3 mg/body, Day 14 (4 day after administration); for Appearent tumor weight: g ± standard error. As to the method: (2) Anti-tumor effect on Balb/C mice inoculated with RLδ1 tumor.
Tumor cells which had been maintained in ascites of Balb/C mouse generation after generation was used. One group is consisting of six female balb/C mice. RLδ1 tumor (1×10^5 cells/0.05 ml) was inoculated into left side of female mice of 6-week old (body weight: 18~20 g). Ten days after, when tumore size came to 7~10 mm, compound of example No. 1(1) or 1(t) was administered by i.p. route (Day 10). Dose of test compound was 1 and 3 mg/body dand each test compound solution volume was 10 ml/kg. Antitumore effect is estimated by survival period and tumor appearent weight.
Test results about survival period and tumor apparent weight are shown in the following Tables II(3) and II(4), respectively.

For the next assay, the system named is Meth-A sarcoma. In words: Anti-tumor effect on Balb/C mice inoculated with Meth-A Sarcoma. It counts as in vivo, female Balb/C mice. To be noted: for Apperarent tumor weight: g ± standard error; for effect on prolongation of life / effect on tumore regression: at the dose of 3 mg/kg; for Survival period: iv tail vein Day 7, 9, 12, day ± standard error. Here is the method: (1) Anti-tumor effect on Balb/C mice inocudlated with Meth-A Sarcoma
Anti-tumor effect was measured by the following procedure.
Tumor cells which had been maintained in ascites of Balb/C mouse generation after generation was used. One group is consisting of eight female Balb/C mice. Meth-A sarcoma tumor (1×10^5 cells/0.05 ml) was inoculated into left side of female mice of 7-week old (body weight: 18-20 g). Seven day after, when tumor size came to 6~9 mm, test compound was administered into tail vein first (day 7) and then administered two times (total three times: Day 7, 9, 12). Dose of test compound is 3 and 10 mg/kg or 3, 10 and 30 mg/kg and each test compound solution volume was 10 ml/kg. Anti-tumor effect is estimated by survival period (from inoculation day to death day) and tumor apparent weight. [formula] Test results about survival period and tumor appearent weight are shown in the following Tables II(1) and II(2), respectively.
In experiments, statistic analysis was done with unpaired Student's t(two tailed)-test. […] P values lower than 0.05 were judged to be significant.

Where [1] appears, read: dose 1 (mg/kg as printed) ip, Day 10 (first column).
[2] abbreviates: dose 1 (mg/kg as printed) ip, second column printed Day 10.
Where [3] appears, read: dose 3 (mg/kg as printed) ip, Day 10 (first column).
The mark [4] stands for this setting: dose 3 (mg/kg as printed) ip, second column printed Day 10.

`CCCCCCCCCCCC(CC(=O)N[C@H]1COC[C@@H](OS(=O)(=O)O)[C@@H]1OC(=O)CCCCCCCCc1ccccc1)OC(=O)CCCCCCCCc1ccccc1` (single isomer, unassigned) [3(c), 2-deoxy-2-[3-(9-phenylnonanoyl)oxytetradecanoyl]amino-3-O-(9-phenylnonanoyl)-4-O-sulfo-1,5-anhydro-D-xylitol]: in the assay with lympha cells, the fold induction at 1 µg/mL was 13.8.

Take `CCCCCCCCCCC[C@@H](CC(=O)N[C@H]1C(O)O[C@H](CO)[C@@H](OS(=O)(=O)O)[C@@H]1OC(=O)CCCCCCCCCCc1ccccc1)OC(=O)CCCCCCCCCCc1ccccc1` (stereo partly drawn) [1(f), 2-deoxy-2-[3S-(11-phenylundecanoyloxy)tetradecanoyl]amino-3-O-(11-phenylundecanoyl)-4-O-sulfo-D-glucopyranose]: in the assay with lympha cells, the fold induction at 1 µg/mL was 23.

Consider `CCCCCCCCCCC[C@@H](CC(=O)N[C@H]1C(O)O[C@H](CO)[C@@H](OS(=O)(=O)O)[C@@H]1OC(=O)CCCCCCCOc1ccccc1)OC(=O)CCCCCCCOc1ccccc1` (stereo partly drawn) [1(l), 2-deoxy-2-[3S-(8-phenoxyoctanoyloxy)tetradecanoyl]amino-3-O-(8-phenoxyoctanoyl)-4-O-sulfo-D-glucopyranose], for which the Survival period came to 47.3 ± 18.8 days with RLδ1 tumor (1 mg/body ip) and 55.3 ± 16.4 days with RLδ1 tumor (3 mg/body ip). In the assay on RLδ1 tumor, the “effect on tumor regression” value was “significant effect”. The Appearent tumor weight in the assay on RLδ1 tumor (setting [1]) is listed as 0.216 ± 0.043 g; with RLδ1 tumor (setting [2]) it was 0.234 ± 0.168 g; in the assay on RLδ1 tumor (dose 1 (mg/kg) ip, Day 13) it was 0.351 ± 0.349 g; with RLδ1 tumor (setting [3]), 0.216 ± 0.029 g; with RLδ1 tumor (setting [4]), 0.210 ± 0.192 g; in the assay with RLδ1 tumor (dose 3 (mg/kg) ip, Day 13) it was 0.333 ± 0.375 g.

In the case of `CCCCCCCCCCC[C@@H](CC(=O)N[C@H]1C(O)O[C@H](CO)[C@@H](OS(=O)(=O)O)[C@@H]1OC(=O)CCCCCCCCc1cccc2ccccc12)OC(=O)CCCCCCCCc1cccc2ccccc12` (stereo partly drawn) [1(o), 2-deoxy-2-[3S-[9-(1-naphthyl)nonanoyloxy]tetradecanoyl]amino-3-O-[9-(1-naphthyl)nonanoyl]-4-O-sulfo-D-glucopyranose], in the assay on lympha cells, the fold induction at 1 µg/mL turned out to be 17.

As to `CCCCCCCCCCC[C@H](CC(=O)N[C@H]1[C@H](OC)O[C@H](CO)[C@@H](OS(=O)(=O)O)[C@@H]1OC(=O)CCCCCCCCc1ccccc1)OC(=O)CCCCCCCCc1ccccc1` [1(t), 2-methyl-2-deoxy-2-[3R-(9-phenylnonanoyloxy)tetradecanoyl]amino-3-O-(9-phenylnonanoyl)-4-O-sulfo-β-D-glucopyranoside], in the assay with lympha cells, the fold induction at 1 µg/mL was found to be 50. The results for the Survival period in the assay on RLδ1 tumor (1 mg/body ip) and with RLδ1 tumor (3 mg/body ip) were 51.8 ± 20.1 days and 54.0 ± 18.4 days, respectively. For the same compound, in the assay on RLδ1 tumor, the “effect on tumor regression” value was “significant effect”. The Appearent tumor weight is 0.226 ± 0.082 g in the assay on RLδ1 tumor (setting [1]); 0.241 ± 0.257 g in the assay on RLδ1 tumor (setting [2]); 0.383 ± 0.583 g in the assay on RLδ1 tumor (dose 1 (mg/kg) ip, Day 13); 0.213 ± 0.041 g in the assay on RLδ1 tumor (setting [3]); 0.159 ± 0.092 g in the assay with RLδ1 tumor (setting [4]); 0.147 ± 0.153 g in the assay with RLδ1 tumor (dose 3 (mg/kg) ip, Day 13).

Take `O=C(CCCCCCCCc1cccc2ccccc12)N[C@H]1C(O)O[C@H](CO)[C@@H](OS(=O)(=O)O)[C@@H]1OC(=O)CCCCCCCCc1cccc2ccccc12` (stereo partly drawn) [1(u), 2-deoxy-2-[9-(1-naphthyl)nonanoyl]amino-3-O-[9-(1-naphthyl)nonanoyl]-4-O-sulfo-D-glucopyranose]: in the assay on lympha cells, the fold induction at 1 µg/mL turned out to be 10.

With `CCCCCCCCCCOc1ccc(C(=O)N[C@H]2[C@@H](OC)O[C@H](CO)[C@@H](OS(=O)(=O)O)[C@@H]2OC(=O)c2ccc(OCCCCCCCCCC)c(OCCCCCCCCCC)c2)cc1OCCCCCCCCCC` [4(b), Methyl 2-deoxy-2-(3,4-didecyloxybenzoyl)amino-3-O-(3,4-didecyloxybenzoyl)-4-O-sulfo-α-D-glucopyranoside], the Apperarent tumor weight was 0.218 ± 0.028 g with Meth-A sarcoma (3 mg/kg iv, Day 7); 0.172 ± 0.094 g in the assay with Meth-A sarcoma (3 mg/kg iv, Day 10); 0.272 ± 0.181 g with Meth-A sarcoma (3 mg/kg iv, Day 13); 0.430 ± 0.459 g in the assay with Meth-A sarcoma (3 mg/kg iv, Day 16); 0.217 ± 0.022 g in the assay with Meth-A sarcoma (10 mg/kg iv, Day 7); 0.154 ± 0.042 g in the assay with Meth-A sarcoma (10 mg/kg iv, Day 10). In addition, the Apperarent tumor weight came out at 0.197 ± 0.068 g with Meth-A sarcoma (10 mg/kg iv, Day 13) and 0.172 ± 0.141 g in the assay with Meth-A sarcoma (10 mg/kg iv, Day 16). The “effect on prolongation of life” value in the assay on Meth-A sarcoma was “significant effect”. Also, the “effect on tumore regression” value in the assay with Meth-A sarcoma is “significant effect”. The Survival period in the assay with Meth-A sarcoma (dose 3 (mg/kg)) came out at 61.6 ± 18.0 days; in the assay with Meth-A sarcoma (dose 10 (mg/kg)), 65.8 ± 20.4 days.

On to `CCCCCCCCCCCCCC(=O)N[C@H]1C(O)O[C@H](CO)[C@@H](OS(=O)(=O)O)[C@@H]1OC(=O)c1ccc(OCCCCCCCCCC)c(OCCCCCCCCCC)c1` (some centres unmarked) [4(c)], for which the Apperarent tumor weight in the assay on Meth-A sarcoma (3 mg/kg iv, Day 7) is on record as 0.200 ± 0.044 g; in the assay with Meth-A sarcoma (3 mg/kg iv, Day 10), 0.230 ± 0.084 g; with Meth-A sarcoma (3 mg/kg iv, Day 13) it was 0.392 ± 0.176 g; in the assay on Meth-A sarcoma (3 mg/kg iv, Day 16), 0.578 ± 0.274 g; with Meth-A sarcoma (10 mg/kg iv, Day 7) it was 0.210 ± 0.025 g; in the assay with Meth-A sarcoma (10 mg/kg iv, Day 10) it was 0.206 ± 0.053 g. Also, the Apperarent tumor weight was 0.242 ± 0.086 g in the assay with Meth-A sarcoma (10 mg/kg iv, Day 13); 0.300 ± 0.193 g with Meth-A sarcoma (10 mg/kg iv, Day 16); 0.209 ± 0.023 g in the assay on Meth-A sarcoma (30 mg/kg iv, Day 7); 0.168 ± 0.062 g in the assay on Meth-A sarcoma (30 mg/kg iv, Day 10); 0.222 ± 0.152 g with Meth-A sarcoma (30 mg/kg iv, Day 13); 0.309 ± 0.259 g with Meth-A sarcoma (30 mg/kg iv, Day 16). Moreover, the “effect on prolongation of life” value in the assay with Meth-A sarcoma is on record as “significant effect”. Further, the “effect on tumore regression” value in the assay on Meth-A sarcoma is recorded as “significant effect”. Besides, the Survival period was determined as 51.9 ± 8.2 days in the assay with Meth-A sarcoma (dose 3 (mg/kg)), 58.3 ± 13.8 days in the assay on Meth-A sarcoma (dose 10 (mg/kg)) and 71.3 ± 16.1 days in the assay on Meth-A sarcoma (dose 30 (mg/kg)).

For `CCCCCCCCCCC[C@@H](CC(=O)N[C@H]1CO[C@H](C)[C@@H](OS(=O)(=O)O)[C@@H]1OC(=O)CCCCCCCCc1ccccc1)OC(=O)CCCCCCCCc1ccccc1` [Example 2, 2,6-deoxy-2-[3S-(9-phenylnonanoyloxy)tetradecanoyl]amino-3-O-(9-phenynonanoyl)-4-O-sulfo-1,5-anhydro-D-glucitol], the fold induction at 1 µg/mL in the assay with lympha cells stood at 33.

Source of the values: patent USRE36385E, “Glucopyranose derivatives” (Ono Pharmaceutical Co., Ltd., priority 1985, dated 1999).
